The text below walks through data of PubChem BioAssay (NCI).

Some test systems named below: BT-549 breast; DU-145 prostate; MCF7 breast; MDA-MB-231 breast; MDA-MB-435; NCI/ADR-RES ovarian; T-47D breast; DLD-1 colon; DMS 273 small cell lung; HOP-18 NSCLC.
Common to all, as to experiment: growth of human tumour cells (NCI), 48 h

Where “and” joins values, the source holds several entries; their conditions need not be identical. Identical values can stand only once.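 Cultured in 96-well plates, cells were exposed to test compound for 48 hours across five concentrations. At the GI50, growth is halved. The concentration for full growth arrest is given as TGI.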 Where a SMILES comes first, the peptide text is derived from it. [ ]: non-standard residue; d: D form. The star is where a group is joined. ξ: configuration not given here. 4Abz = Nc1ccc(C(=O)O)cc1; ξL = CC(C)CC(N)C(=O)O; NHOH = ON*

`CC(=N\O)/C(C)=N/O.CC(=N\O)/C(C)=N/O.[Pd]`: the GI50 in the test with BT-549 breast was 8.49 µM; with DU-145 prostate, 6.48 µM; in the test on MCF7 breast, 4.98 µM; in the test with MDA-MB-231 breast, 3.3 µM; in the test on MDA-MB-435, 2.64 µM; in the test with NCI/ADR-RES ovarian it was 3.18 µM. Further, the GI50 with T-47D breast is 6.19 µM. Moreover, the TGI with BT-549 breast is over 10 µM; in the test with DU-145 prostate, over 10 µM; in the test with MCF7 breast it was over 10 µM; in the test on MDA-MB-231 breast it was 9.03 µM; in the test on MDA-MB-435, 5.43 µM; in the test on NCI/ADR-RES ovarian it was 7.72 µM. The TGI in the test on T-47D breast is over 10 µM.
Consider `O=C(O)CSc1ccn(Cc2ccccc2)c1`, for which the TGI with BT-549 breast, in the test with DU-145 prostate, with MCF7 breast, in the test with MDA-MB-231 breast, in the test on MDA-MB-435 and in the test on NCI/ADR-RES ovarian was over 100 µM throughout. This compound also yielded a TGI in the test on T-47D breast of over 100 µM.
As for `COc1ccc2c(c1)Cc1cc(N=[N+]([O-])c3ccc4c(c3)Cc3cc(OC)ccc3-4)ccc1-2`, the TGI in the test on BT-549 breast is over 100 µM; in the test on DU-145 prostate, over 100 µM; with MCF7 breast, 64.4 µM; in the test on MDA-MB-231 breast, over 100 µM; with MDA-MB-435, over 100 µM; in the test with NCI/ADR-RES ovarian it was over 100 µM. The compound further gave a TGI in the test on T-47D breast of over 100 µM.
In the case of `C=C1c2c(C)nn(-c3ccccc3)c2N(C)C23C[C@@H]1C1(C)c4c(C)nn(-c5ccccc5)c4N(C)C(C)(C[C@H]12)C3` (stereo partly specified), the GI50 is 5.55 µM with BT-549 breast; 8.7 µM in the test with DU-145 prostate; 2.99 µM in the test on MCF7 breast; 4.55 µM in the test with MDA-MB-231 breast; 4.12 µM in the test on MDA-MB-435; 6.04 µM in the test on NCI/ADR-RES ovarian. The GI50 in the test with T-47D breast was 2.13 µM. The TGI in the test on BT-549 breast is over 100 µM; in the test with DU-145 prostate it was over 100 µM; in the test on MCF7 breast it was over 100 µM; with MDA-MB-231 breast it was 39.6 µM; with MDA-MB-435, over 100 µM; in the test on NCI/ADR-RES ovarian it was over 100 µM. The TGI in the test with T-47D breast is over 100 µM.
As for `CC(C)CC(NC(=O)[C@@H]1CCCN1C(=O)CNC(=O)c1ccc(N)cc1)C(=O)N[C@H](C)C(=O)NO` (stereo partly specified) (H-[4Abz]GP[ξL][dA]-{NHOH}), the GI50 with BT-549 breast, in the test with DU-145 prostate, with MCF7 breast, in the test with MDA-MB-231 breast, in the test on MDA-MB-435 and in the test with NCI/ADR-RES ovarian was over 100 µM each time. In addition, in the test with T-47D breast, the GI50 is over 100 µM. The TGI in the test on BT-549 breast, in the test on DU-145 prostate, with MCF7 breast, in the test with MDA-MB-231 breast, with MDA-MB-435 and in the test on NCI/ADR-RES ovarian was over 100 µM in each case. In addition, the TGI in the test with T-47D breast was over 100 µM.
Regarding `COc1ccc(/C=N\N2C(=O)Cc3ccccc32)cc1`, the TGI in the test with DLD-1 colon, in the test on DMS 273 small cell lung and with HOP-18 NSCLC was over 100 µM throughout.
As to `CCCCCc1c(C)[nH]c(/C=C2\N=C(c3ccc[nH]3)C=C2Oc2ccc(OC)cc2)c1C`, the GI50 in the test on BT-549 breast is 0.353 µM and 0.246 µM; with DU-145 prostate it was 0.165 µM and 0.0387 µM; with MCF7 breast it was 0.0667 µM and 0.0358 µM; in the test with MDA-MB-231 breast, 0.0833 µM and 0.0117 µM; in the test on MDA-MB-435 it was 0.149 µM and 0.0331 µM; in the test with NCI/ADR-RES ovarian it was 0.37 µM and 0.203 µM. For the same compound, the GI50 in the test on T-47D breast is 0.193 µM and 0.0295 µM. Further, the TGI with BT-549 breast is 2.6 µM and 2.36 µM; in the test with DU-145 prostate, 4.38 µM and 1.52 µM; in the test with MCF7 breast, 1.21 µM and 1.15 µM; with MDA-MB-435, 0.387 µM and 0.153 µM; with NCI/ADR-RES ovarian, 2.13 µM and 1.14 µM; in the test on T-47D breast it was 0.968 µM and 1.24 µM.
As to `CC([C@H]1CCC2C3CCC4C(=O)C(NC=O)=CC[C@]4(C)C3CC[C@@]21C)N(C)C` (stereo partly specified), the GI50 is 3.94 µM with BT-549 breast; 8.07 µM in the test on DU-145 prostate; 2.43 µM in the test on MCF7 breast; 2.36 µM with MDA-MB-231 breast; 2.81 µM in the test on MDA-MB-435; 6.8 µM in the test on NCI/ADR-RES ovarian. Moreover, the GI50 with T-47D breast was 1.73 µM. For the same compound, the TGI in the test with BT-549 breast is 21.3 µM; with DU-145 prostate it was 25.1 µM; with MCF7 breast it was 14.1 µM; with MDA-MB-231 breast, 7.07 µM; in the test with MDA-MB-435, over 29.9 µM; in the test on NCI/ADR-RES ovarian, 27.2 µM. The same compound showed a TGI with T-47D breast of 6.57 µM.
As to `O=C(CCCCCCCCC(=O)OCCCn1cc(C(=O)NC(=O)OCc2ccccc2)c(=O)[nH]c1=O)OCCCn1cc(C(=O)NC(=O)OCc2ccccc2)c(=O)[nH]c1=O`, the TGI in the test with DLD-1 colon, with DMS 273 small cell lung and in the test with HOP-18 NSCLC was over 100 µM in each case.
As to `COc1cccc(-n2cnc3c(N/N=C/c4ccncc4)ncnc32)c1`, the GI50 with BT-549 breast is over 23.8 µM; with DU-145 prostate it was 17.3 µM; with MCF7 breast, over 25 µM; with MDA-MB-231 breast, over 20.3 µM; in the test on MDA-MB-435, 12.4 µM; in the test on NCI/ADR-RES ovarian, over 25 µM. Also, in the test with T-47D breast, the GI50 was 11.2 µM. The TGI in the test on BT-549 breast, with DU-145 prostate, with MCF7 breast, in the test on MDA-MB-231 breast, in the test with MDA-MB-435 and with NCI/ADR-RES ovarian was over 25 µM each time. The compound further showed a TGI in the test with T-47D breast of over 25 µM.
In the case of `COc1ccc(/C(C#N)=C/c2nc3c(N4CCOCC4)nc(Cl)nc3n2C)cc1OC`, the GI50 in the test on BT-549 breast is under 0.01 µM; in the test on DU-145 prostate it was under 0.01 µM; in the test on MCF7 breast it was under 0.0137 µM; in the test on MDA-MB-231 breast, under 0.0133 µM; in the test on MDA-MB-435 it was under 0.01 µM; in the test on NCI/ADR-RES ovarian, under 0.01 µM. Besides, the GI50 in the test on T-47D breast was 0.272 µM. The TGI in the test on BT-549 breast is 0.244 µM; in the test with DU-145 prostate, 1.3 µM; with MCF7 breast, 1.75 µM; in the test on MDA-MB-231 breast, 2.46 µM; with MDA-MB-435, under 0.01 µM; in the test on NCI/ADR-RES ovarian it was under 0.01 µM. In the test with T-47D breast, this compound had a TGI of 3.15 µM.
For `O=C1c2cc(Br)ccc2-c2c1c1ccccc1c(=O)n2CCCCl`, the GI50 in the test on BT-549 breast was 44.5 µM; in the test on DU-145 prostate it was 64.7 µM; with MCF7 breast, 1.61 µM; in the test with MDA-MB-231 breast, 13.1 µM; in the test with MDA-MB-435 it was 29.4 µM; with NCI/ADR-RES ovarian it was 15.2 µM. Also, the GI50 in the test with T-47D breast was over 100 µM. The TGI in the test with BT-549 breast was over 100 µM; with DU-145 prostate, over 100 µM; in the test with MCF7 breast, over 100 µM; in the test on MDA-MB-231 breast, 37.1 µM; in the test on MDA-MB-435 it was over 100 µM; in the test with NCI/ADR-RES ovarian, 60.1 µM. In the test on T-47D breast, this compound yielded a TGI of over 100 µM.
